Results reported in PubChem BioAssay (NCI).
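Cultured in 96-well plates, cells were exposed to test compound for 48 hours across five concentrations. GI50 = concentration required for 50% inhibition of growth. At the TGI there is no net growth.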

Key:
Test in all cases: NCI tumour cell line growth inhibition, 48 h
A498 renal = test system: A498 renal
A549 NSCLC = test system: A549 NSCLC
BT-549 breast = test system: BT-549 breast
CAKI-1 renal = test system: CAKI-1 renal
CCRF-CEM leukemia = test system: CCRF-CEM leukemia
COLO 205 colon = test system: COLO 205 colon
DU-145 prostate = test system: DU-145 prostate
EKVX NSCLC = test system: EKVX NSCLC
HCT-15 colon = test system: HCT-15 colon
HL-60(TB) leukemia = test system: HL-60(TB) leukemia
HOP-62 NSCLC = test system: HOP-62 NSCLC
HOP-92 NSCLC = test system: HOP-92 NSCLC
HS 578T breast = test system: HS 578T breast
HT29 colon = test system: HT29 colon
K-562 leukemia = test system: K-562 leukemia
KM12 colon = test system: KM12 colon
M14 melanoma = test system: M14 melanoma
MCF7 breast = test system: MCF7 breast
MDA-MB-435 = test system: MDA-MB-435
MOLT-4 leukemia = test system: MOLT-4 leukemia
NCI-H23 lung = test system: NCI-H23 lung
NCI-H460 lung = test system: NCI-H460 lung
NCI-H522 lung = test system: NCI-H522 lung
NCI/ADR-RES ovarian = test system: NCI/ADR-RES ovarian
OVCAR-3 ovarian = test system: OVCAR-3 ovarian
OVCAR-8 ovarian = test system: OVCAR-8 ovarian
PC-3 prostate = test system: PC-3 prostate
RPMI-8226 leukemia = test system: RPMI-8226 leukemia
RXF 393 renal = test system: RXF 393 renal
SF-268 CNS = test system: SF-268 CNS
SF-295 CNS = test system: SF-295 CNS
SK-MEL-2 melanoma = test system: SK-MEL-2 melanoma
SK-MEL-5 melanoma = test system: SK-MEL-5 melanoma
SK-OV-3 ovarian = test system: SK-OV-3 ovarian
SNB-75 CNS = test system: SNB-75 CNS
SR leukemia = test system: SR leukemia
SW-620 colon = test system: SW-620 colon
T-47D breast = test system: T-47D breast
TK-10 renal = test system: TK-10 renal
U251 CNS = test system: U251 CNS
UO-31 renal = test system: UO-31 renal
786-0 renal = test system: 786-0 renal
ACHN renal = test system: ACHN renal
HCT-116 colon = test system: HCT-116 colon
LOX IMVI melanoma = test system: LOX IMVI melanoma
MDA-MB-231 breast = test system: MDA-MB-231 breast
NCI-H226 lung = test system: NCI-H226 lung
SF-539 CNS = test system: SF-539 CNS
SNB-19 CNS = test system: SNB-19 CNS

Cc1ccc(N(CC(=O)Nc2ccc(S(=O)(=O)N3CCC(N4CCCC4)CC3)cc2)S(=O)(=O)c2ccc(Cl)cc2)cc1
GI50 (A498 renal): 1.44 µM | TGI (A498 renal): 2.84 µM | GI50 (A549 NSCLC): 1.78 µM | TGI (A549 NSCLC): 3.52 µM | GI50 (BT-549 breast): 1.68 µM | TGI (BT-549 breast): 3.31 µM | GI50 (CAKI-1 renal): 1.65 µM | TGI (CAKI-1 renal): 3.31 µM | GI50 (CCRF-CEM leukemia): 1.9 µM | TGI (CCRF-CEM leukemia): 6.35 µM | GI50 (COLO 205 colon): 1.75 µM | TGI (COLO 205 colon): 3.39 µM | GI50 (DU-145 prostate): 1.76 µM | TGI (DU-145 prostate): 3.4 µM | GI50 (EKVX NSCLC): 1.69 µM | TGI (EKVX NSCLC): 3.82 µM | GI50 (HCT-15 colon): 1.43 µM | TGI (HCT-15 colon): 2.93 µM | GI50 (HL-60(TB) leukemia): 1.73 µM | TGI (HL-60(TB) leukemia): 4.33 µM | GI50 (HOP-62 NSCLC): 1.76 µM | TGI (HOP-62 NSCLC): 3.55 µM | GI50 (HOP-92 NSCLC): 1.19 µM | TGI (HOP-92 NSCLC): 2.71 µM | GI50 (HS 578T breast): 1.76 µM | TGI (HS 578T breast): 4.39 µM | GI50 (HT29 colon): 1.87 µM | TGI (HT29 colon): 3.68 µM | GI50 (K-562 leukemia): 0.566 µM | TGI (K-562 leukemia): 2.75 µM | GI50 (KM12 colon): 1.96 µM | TGI (KM12 colon): 3.9 µM | GI50 (M14 melanoma): 1.71 µM | TGI (M14 melanoma): 3.39 µM | GI50 (MCF7 breast): 1.6 µM | TGI (MCF7 breast): 3.6 µM | GI50 (MDA-MB-435): 1.69 µM | TGI (MDA-MB-435): 3.14 µM | GI50 (MOLT-4 leukemia): 1.87 µM | TGI (MOLT-4 leukemia): 4.98 µM | GI50 (NCI-H23 lung): 1.8 µM | TGI (NCI-H23 lung): 3.87 µM | GI50 (NCI-H460 lung): 1.75 µM | TGI (NCI-H460 lung): 3.43 µM | GI50 (NCI-H522 lung): 1.89 µM | TGI (NCI-H522 lung): 3.77 µM | GI50 (NCI/ADR-RES ovarian): 1.93 µM | TGI (NCI/ADR-RES ovarian): 4.05 µM | GI50 (OVCAR-3 ovarian): 1.77 µM | TGI (OVCAR-3 ovarian): 3.49 µM | GI50 (OVCAR-8 ovarian): 1.86 µM | TGI (OVCAR-8 ovarian): 3.76 µM | GI50 (PC-3 prostate): 1.88 µM | TGI (PC-3 prostate): 4.05 µM | GI50 (RPMI-8226 leukemia): 2.08 µM | TGI (RPMI-8226 leukemia): 5.06 µM | GI50 (RXF 393 renal): 1.16 µM | TGI (RXF 393 renal): 2.78 µM | GI50 (SF-268 CNS): 1.61 µM | TGI (SF-268 CNS): 3.29 µM | GI50 (SF-295 CNS): 1.74 µM | TGI (SF-295 CNS): 3.42 µM | GI50 (SK-MEL-2 melanoma): 1.95 µM | TGI (SK-MEL-2 melanoma): 3.92 µM | GI50 (SK-MEL-5 melanoma): 1.73 µM | TGI (SK-MEL-5 melanoma): 3.14 µM | GI50 (SK-OV-3 ovarian): 1.82 µM | TGI (SK-OV-3 ovarian): 3.29 µM | GI50 (SNB-75 CNS): 1.22 µM | TGI (SNB-75 CNS): 2.73 µM | GI50 (SR leukemia): 0.3 µM | TGI (SR leukemia): 0.856 µM | GI50 (SW-620 colon): 1.66 µM | TGI (SW-620 colon): 3.44 µM | GI50 (T-47D breast): 1.74 µM | TGI (T-47D breast): 3.91 µM | GI50 (TK-10 renal): 1.68 µM | TGI (TK-10 renal): 3.36 µM | GI50 (U251 CNS): 1.56 µM | TGI (U251 CNS): 2.98 µM | GI50 (UO-31 renal): 1.6 µM | TGI (UO-31 renal): 3.27 µM

Nc1nc(Cl)c(N=Nc2ccc(Cl)cc2)c(NCC2(CO)CCC2)n1
GI50 (786-0 renal): 10.2 µM | GI50 (ACHN renal): 41 µM | GI50 (BT-549 breast): 49.8 µM | GI50 (CAKI-1 renal): 2.27 µM | GI50 (EKVX NSCLC): 21.7 µM | GI50 (HCT-116 colon): 36.8 µM | GI50 (HOP-62 NSCLC): 42 µM | TGI (HOP-62 NSCLC): 82.6 µM | GI50 (HOP-92 NSCLC): 14.9 µM | TGI (HOP-92 NSCLC): 64.9 µM | GI50 (HS 578T breast): 32.9 µM | GI50 (LOX IMVI melanoma): 41 µM | GI50 (M14 melanoma): 98.9 µM | GI50 (MCF7 breast): 25.3 µM | GI50 (MDA-MB-231 breast): 8.74 µM | TGI (MDA-MB-231 breast): 51.1 µM | GI50 (NCI-H226 lung): 77 µM | GI50 (NCI-H23 lung): 48 µM | GI50 (NCI/ADR-RES ovarian): 41.8 µM | GI50 (OVCAR-8 ovarian): 26.8 µM | TGI (OVCAR-8 ovarian): 88.8 µM | GI50 (RXF 393 renal): 36.5 µM | TGI (RXF 393 renal): 61.6 µM | GI50 (SF-268 CNS): 46.3 µM | GI50 (SF-295 CNS): 49.4 µM | GI50 (SF-539 CNS): 90.7 µM | GI50 (SK-MEL-2 melanoma): 89.3 µM | GI50 (SK-OV-3 ovarian): 12.6 µM | GI50 (SNB-19 CNS): 33.7 µM | GI50 (SNB-75 CNS): 7.05 µM | TGI (SNB-75 CNS): 30.1 µM | GI50 (T-47D breast): 26.4 µM | GI50 (U251 CNS): 41.1 µM
